Results on one molecule are retold here after patent publication US20230172958A1, “USE OF COMPOUNDS FOR TREATING VIRAL INFECTIONS” (priority 2020, published 2023).

One data set concerns V-ATPase. In words: V-ATPase ELISA (Human V-Type Proton ATPase ELISA kit) on treated MDAMB231 cells. It is filed as cell-based. To be noted: 100 nM (0.1 μM)/10,000 cells, 48 hours. As to the method:
An ELISA test was performed using Human V-Type Proton ATPase ELISA kit (My BioSource Catlog no: MBS911862) to determine the V-ATPase inhibitory effect of the compounds of the present invention.
Procedure: 1.0 million cells of MDAMB231 (cell line rich in V-ATPase) were plated on 60 mm plates for 24 hours at 37° C. and 5% CO2. The cells were treated with the test compounds (Formula A to U) at a concentration of 100 nM (0.1 μM)/10,000 cells and incubated for 48 hours. After incubation the supernatant was discarded, the cells were washed with D.P.B.S. (Dulbecco's phosphate-buffered saline), scraped and stored at −80° C. for 48 hours. The cells were thawed, vortexed, homogenized for 7 minutes, followed by centrifugation for 3 minutes at 3000 R.P.M. The supernatant was taken for V-ATPase Assay.
Standards and samples were pipetted into the wells. Antibody specific for V-ATPase was pre-coated onto a microplate. Any V-ATPase present in the standard /sample would get bound by the immobilized antibody. After the incubation period any unbound substances were removed by washing and a biotin-conjugated antibody specific for V-ATPase was added to the wells and plates were re-incubated at 37° C. and 5% CO2. After washing, avidin conjugated Horseradish Peroxidase (HRP) was added to the wells. Following a wash to remove any unbound avidin-enzyme reagent, a substrate solution was added to the wells and colour developed was in proportion to the amount of V-ATPase bound in the initial step. The colour development was stopped, and the optical density was measured at 450 nm spectrophotometrically. The concentration of V-ATPase was then calculated by substituting the optical density in the regression equation obtained from the standards. Percent (%) reduction in V-ATPase was calculated by subtracting the amount of V-ATPase obtained from the untreated/conc. of V-ATPase in untreated X100.
A general note: ELISA stands for enzyme-linked immunosorbent assay.

The subject of the next data set is SARS-CoV-2. In words: Anti SARS-CoV-2 IC50 estimation by qRT-PCR in VeroE6 cells. It is filed as cell-based. To be noted: Severe acute respiratory syndrome coronavirus 2, Vero C1008.
A short description of a further data set: Bacterial mutation study. How it is done: Various pre-clinical GLP (Good Laboratory Practice) and non-GLP studies were performed with the compound of Formula E. These included 7-day and 28- days studies on rats and dogs, acute toxicity in rats, mice and dogs. The effect of the compound of Formula E on respiratory function, nervous system and cardiovascular system, bacterial mutation, metabolism, CaCo2 permeability, protein binding and cytochrome effect was also studied.

For orientation: IC50 means the midpoint of a concentration-inhibition curve.

Read-outs that look alike come from different tables or passages of the source. A value given as a limit tells only on which side of the number the result lay.

As to `COC1COC(Oc2ccc(-c3ccc4c(c3)OCO4)c3ccccc23)C(O)C1OC` (centres unmarked) [Compound of Formula E, 2-(1-(benzo[d][1,3]dioxol-5-yl)naphthalen-4-yloxy)-tetrahydro-4,5-dimethoxy-2H-pyran-3-ol], the “reduction of V-ATPase (%)” value in the data set with V-ATPase is on record as 15.6%. Besides, the concentration for half-maximal inhibition (IC50) in the data set with SARS-CoV-2 (VeroE6, MOI 0.01, 48 hours, qRT-PCR E gene, read-out: IC50 value (μM) E gene) was 0.571 µM; in the data set with SARS-CoV-2 (VeroE6, MOI 0.01, 48 hours, qRT-PCR N gene, read-out: IC50 value (μM) N gene), 0.586 µM; with SARS-CoV-2 (conclusion statement, read-out: anti-SARS-CoV-2 activity IC50), under 10 µM. Besides, the mutagenicity entry in the data set “Bacterial mutation study” is “non-mutagenic”.
